In ChEMBL document CHEMBL1145065, “Thalidomide metabolites and analogues. 3. Synthesis and antiangiogenic activity of the teratogenic and TNFalpha-modulatory thalidomide analogue 2-(2,6-dioxopiperidine-3-yl)phthalimidine” (2003) one finds inhibition data, which are given here for one compound.

The species named for assay [1] is Rattus norvegicus. As to the kind of experiment: Inhibition of angiogenesis (new microvessel growth) in rat aortic ring model at 200 uM in Endothelial basal medium (EBM) and Dimethylsulfoxide (DMSO). It counts as functional. The following applies: Aorta.
The species named for assay [2] is Rattus norvegicus. Description: Inhibition of angiogenesis (new microvessel growth) in rat aortic ring model at 100 uM in Endothelial basal medium (EBM) and Dimethylsulfoxide (DMSO). It counts as functional. The following applies: Aorta.

In general, inhibition refers to the percentage by which the read-out fell short of the control. Low values mean a response near the control, high ones a response far below the control. For the compound `O=C1CCC(N2Cc3ccccc3C2=O)C(=O)N1` (configuration not stated), 200 µM produced 30% inhibition in the assay filed under Rattus norvegicus [1]. The compound further came in with an inhibition at 100 µM in the assay filed under Rattus norvegicus [2] of 30%.
